Like-named read-outs stand apart in the source and are kept apart here.
What was measured:
[1] = Dose limiting toxicity in patients, 21-day QD or BID dosing; assay type: in vivo
Method: (§1) A total of 43 patients were enrolled in the study. The tumor types were as follows: colorectal (23), sarcoma (5), mesothelioma (3), salivary gland (2), endometrial (2), unknown (2), hepatoma (1), melanoma (1), renal cell (1), lung (1), ovary (1), and granulosa cell (1). Patients were treated once a day (QD) or twice a day (BID) for 21 days with N-[2-[(4-hydroxyphenyl)amino]-3-pyridyl]-4-methoxybenzenesulfonamide followed by a 7-day period where no drug was received. Doses were escalated by 50 mg/day (25 mg BID). Three patients were initially treated at each dose level. […] If additional patients experienced dose-limiting toxicity, on occasion the dose level was expanded to nine patients to further assess tolerability. Response assessment was performed every two cycles.

[2] = Pharmacokinetic profiles of patients on the extended dosing regimen (plasma, LCMS/MS, day 15); assay type: in vivo; details: for AUC / half-life / Cmax / concentration at 15 day / Tmax: human, plasma, po; for concentration at 15 day: read-out: Cmin
Method: as §1
In evaluating the pharmacokinetic profiles of the patients, plasma samples were collected pre-dose and over 6 hours following dosing on day 15. Plasma concentrations of N-[2-[(4-hydroxyphenyl)amino]-3-pyridyl]-4-methoxybenzenesulfonamide were determined by a validated LCMS/MS assay. Pharmacokinetic parameter estimates were obtained using noncompartmental methods, and included maximum observed concentration (Cmax), time to Cmax (Tmax), minimum observed concentration (Cmin), half-life (t1/2), and area under the plasma concentration-time profile over a dosing interval (AUCτ). To facilitate calculation of day 15 AUCs, pre-dose concentrations at the beginning and end of the dosing interval were assumed to be equal. Results are summarized below (Table 2).

[3] = 25 mg, 25 mg BID oral, day 15, plasma, N=2
[4] = 25 mg, 25 mg QD oral, day 15, plasma, N=4
[5] = 50 mg, 50 mg BID oral, day 15, plasma, N=2
[6] = 50 mg, 50 mg QD oral, day 15, plasma, N=3
[7] = 75 mg, 75 mg BID oral, day 15, plasma, N=3
[8] = 100 mg, 100 mg BID oral, day 15, plasma, N=3
[9] = 100 mg, 100 mg QD oral, day 15, plasma, N=3
[10] = 200 mg, 200 mg QD oral, day 15, plasma, N=2

For `COc1ccc(S(=O)(=O)Nc2cccnc2Nc2ccc(O)cc2)cc1` [N-[2-[(4-hydroxyphenyl)amino]-3-pyridyl]-4-methoxybenzenesulfonamide], the dose limiting toxicity ([1]; patients receiving up to 150 mg of drug per day) was “No dose limiting toxicity”, the “dose limiting toxicities observed” value ([1]; patients, QD or BID for 21 days followed by 7 days off) was “ileus, peripheral neuropathy, fatigue, and abdominal pain” and the Cmin ([2]; 150 mg QD oral, day 15, plasma, N=3) was 700 ± 400 ng/mL. For the same compound, the “accumulation of plasma concentrations” value ([2]; QD or BID dosing) was “accumulated minimally”, the “variation of Tmax and t1/2 with dose” value ([2]; across doses studied) was “did not appear to vary with dose” and the “dose proportionality of plasma concentrations” value ([2]; across the range of doses studied) was “dose-proportional (linear) pharmacokinetics”. The “Cmin concentrations, BID vs QD regimens” value ([2]; for a given daily dose) was “tended to be greater for BID regimens compared to QD regimens”, the AUC ([2]; 25 mg, 25 mg BID oral, day 15, N=2, AUC0-12) was 9100 ± 400 ng·h/mL and the half-life ([2]; 25 mg, 25 mg BID oral, day 15, N=2, harmonic mean and pseudo standard deviation, read-out: t1/2 (converted)) was 3.8 ± 1.7 h. It also gave a Cmax [2, 3] of 2000 ± 600 ng/mL, a concentration at 15 day [2, 3] of 300 ng/mL and a Tmax ([2]; 25 mg, 25 mg BID oral, day 15, plasma, N=2, read-out: Tmax) of 2.3 ± 2.5 h. It also gave an AUC ([2]; 25 mg, 25 mg QD oral, day 15, N=4, AUC0-24) of 9000 ± 2900 ng·h/mL, a half-life ([2]; 25 mg, 25 mg QD oral, day 15, N=4, harmonic mean and pseudo standard deviation, read-out: t1/2 (converted)) of 6.3 ± 0.2 h and a Cmax [2, 4] of 1700 ± 300 ng/mL. For the same compound, the concentration at 15 day [2, 4] was 100 ng/mL, the Tmax ([2]; 25 mg, 25 mg QD oral, day 15, plasma, N=4, read-out: Tmax) was 1.3 ± 0.5 h and the AUC ([2]; 50 mg, 50 mg BID oral, day 15, N=2, AUC0-12) was 16400 ± 3200 ng·h/mL. For the same compound, the half-life ([2]; 50 mg, 50 mg BID oral, day 15, N=2, harmonic mean and pseudo standard deviation, read-out: t1/2 (converted)) was 4 ± 0.6 h, the Cmax [2, 5] was 5000 ± 900 ng/mL and the concentration at 15 day [2, 5] was 400 ± 200 ng/mL. It also gave a Tmax ([2]; 50 mg, 50 mg BID oral, day 15, plasma, N=2, read-out: Tmax) of 0.5 h, an AUC ([2]; 50 mg, 50 mg QD oral, day 15, N=3, AUC0-24) of 20400 ± 5000 ng·h/mL and a half-life ([2]; 50 mg, 50 mg QD oral, day 15, N=3, harmonic mean and pseudo standard deviation, read-out: t1/2 (converted)) of 4.6 ± 2.4 h. The Cmax [2, 6] was 3500 ± 200 ng/mL, the concentration at 15 day [2, 6] was 100 ± 100 ng/mL and the Tmax ([2]; 50 mg, 50 mg QD oral, day 15, plasma, N=3, read-out: Tmax) was 1.7 ± 0.6 h. The AUC ([2]; 75 mg, 75 mg BID oral, day 15, N=3, AUC0-12) was 17000 ± 3600 ng·h/mL, the half-life ([2]; 75 mg, 75 mg BID oral, day 15, N=3, harmonic mean and pseudo standard deviation, read-out: t1/2 (converted)) was 5.3 ± 0.9 h and the Cmax [2, 7] was 3700 ± 1200 ng/mL. It also gave a concentration at 15 day [2, 7] of 600 ng/mL, a Tmax ([2]; 75 mg, 75 mg BID oral, day 15, plasma, N=3, read-out: Tmax) of 1.5 ± 0.9 h and an AUC ([2]; 100 mg, 100 mg BID oral, day 15, N=3, AUC0-12) of 24100 ± 10000 ng·h/mL. The half-life ([2]; 100 mg, 100 mg BID oral, day 15, N=3, harmonic mean and pseudo standard deviation, read-out: t1/2 (converted)) was 6.1 ± 2.3 h, the Cmax [2, 8] was 3500 ± 1300 ng/mL and the concentration at 15 day [2, 8] was 900 ± 400 ng/mL. The Tmax ([2]; 100 mg, 100 mg BID oral, day 15, plasma, N=3, read-out: Tmax) was 2.3 ± 1.5 h, the AUC ([2]; 100 mg, 100 mg QD oral, day 15, N=3, AUC0-24) was 39500 ± 7900 ng·h/mL and the half-life ([2]; 100 mg, 100 mg QD oral, day 15, N=3, harmonic mean and pseudo standard deviation, read-out: t1/2 (converted)) was 5.8 ± 1.3 h. The Cmax [2, 9] was 8400 ± 900 ng/mL, the concentration at 15 day [2, 9] was 200 ± 100 ng/mL and the Tmax ([2]; 100 mg, 100 mg QD oral, day 15, plasma, N=3, read-out: Tmax) was 1.7 ± 0.6 h. The AUC ([2]; 150 mg, 150 mg QD oral, day 15, N=3, AUC0-24) was 55100 ± 12200 ng·h/mL, the half-life ([2]; 150 mg, 150 mg QD oral, day 15, N=3, harmonic mean and pseudo standard deviation, read-out: t1/2 (converted)) was 8.5 ± 1.5 h and the Cmax ([2]; 150 mg, 150 mg QD oral, day 15, plasma, N=3) was 8200 ± 2300 ng/mL. The Tmax ([2]; 150 mg, 150 mg QD oral, day 15, plasma, N=3, read-out: Tmax) was 1.2 ± 0.8 h, the AUC ([2]; 200 mg, 200 mg QD oral, day 15, N=2, AUC0-24) was 60200 ± 34200 ng·h/mL and the half-life ([2]; 200 mg, 200 mg QD oral, day 15, N=2, harmonic mean and pseudo standard deviation, read-out: t1/2 (converted)) was 7 ± 1 h. For the same compound, the Cmax [2, 10] was 9100 ± 5900 ng/mL, the concentration at 15 day [2, 10] was 500 ± 300 ng/mL and the Tmax ([2]; 200 mg, 200 mg QD oral, day 15, plasma, N=2, read-out: Tmax) was 2 h. For the same compound, the Tmax ([2]; oral dosing, all regimens, read-out: overall mean Tmax) was 1.5 h, the half-life ([2]; oral dosing, all regimens, read-out: overall mean t1/2 (converted)) was 6 h and the “absorption following oral dosing” value ([2]; oral dosing, patients) was “rapidly absorbed”.
